Test system: HOP-62 complex spheroids with HUVEC/MSC, viability
Assay: Anticancer human tumor HOP-62 cell line growth inhibition [RAS];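 also: spheroids exposed to agents for seven days before readout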;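 as to viability, T/C: 100% = DMSO vehicle control viability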
Details: for IC50: curve of first compound; for viability, T/C: stronger effect = lower value
In short: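 Multi-cell-type spheroids: tumor cells plus HUVEC endothelial cells and mesenchymal stem cells. RAS-pathway inhibitors were combined with targeted agents, each dosed in half-log steps down from clinical Cmax, or from 10 microM when Cmax was unknown.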

[1] = second compound 0.000949 µM, first compound 0.0316 µM
[2] = second compound 0.000949 µM, first compound 0.1 µM
[3] = second compound 0.000949 µM, first compound 0.316 µM
[4] = second compound 0.000949 µM, first compound 1 µM
[5] = second compound 0.000949 µM, first compound 3.16 µM
[6] = second compound 0.000949 µM, first compound 10 µM
[7] = second compound 0.003 µM, first compound 0.0316 µM
[8] = second compound 0.003 µM, first compound 0.1 µM
[9] = second compound 0.003 µM, first compound 0.316 µM
[10] = second compound 0.003 µM, first compound 1 µM
[11] = second compound 0.003 µM, first compound 3.16 µM
[12] = second compound 0.003 µM, first compound 10 µM
[13] = second compound 0.00949 µM, first compound 0.0316 µM
[14] = second compound 0.00949 µM, first compound 0.1 µM
[15] = second compound 0.00949 µM, first compound 0.316 µM
[16] = second compound 0.00949 µM, first compound 1 µM
[17] = second compound 0.00949 µM, first compound 3.16 µM
[18] = second compound 0.00949 µM, first compound 10 µM
[19] = second compound 0.03 µM, first compound 0.0316 µM
[20] = second compound 0.03 µM, first compound 0.1 µM
[21] = second compound 0.03 µM, first compound 0.316 µM
[22] = second compound 0.03 µM, first compound 1 µM
[23] = second compound 0.03 µM, first compound 3.16 µM
[24] = second compound 0.03 µM, first compound 10 µM
[25] = second compound 0.0949 µM, first compound 0.0316 µM
[26] = second compound 0.0949 µM, first compound 0.1 µM
[27] = second compound 0.0949 µM, first compound 0.316 µM
[28] = second compound 0.0949 µM, first compound 1 µM
[29] = second compound 0.0949 µM, first compound 3.16 µM
[30] = second compound 0.0949 µM, first compound 10 µM
[31] = second compound 0.3 µM, first compound 0.0316 µM
[32] = second compound 0.3 µM, first compound 0.1 µM
[33] = second compound 0.3 µM, first compound 0.316 µM
[34] = second compound 0.3 µM, first compound 1 µM
[35] = second compound 0.3 µM, first compound 3.16 µM
[36] = second compound 0.3 µM, first compound 10 µM

## CC(C)NCC(C(=O)N1CCN(c2ncnc3c2C(C)CC3O)CC1)c1ccc(Cl)cc1 (stereo unspecified) + C=CC(=O)N1CCN(c2nc(OCC3CCCN3C)nc3c(F)c(-c4nc(N)cc(C)c4C(F)(F)F)c(Cl)cc23)C(C)C1
Second compound 0.00316 µM
  IC50: 1050 nM
Second compound 0.01 µM
  IC50: 710 nM
Second compound 0.0316 µM
  IC50: 464 nM
Second compound 0.1 µM
  IC50: 450 nM
Second compound 0.316 µM
  IC50: 554 nM
Second compound 1 µM
  IC50: 300 nM
Second compound 0.00316 µM, first compound 0.0316 µM
  viability, T/C: 84.3%
Second compound 0.00316 µM, first compound 0.1 µM
  viability, T/C: 78.1%
Second compound 0.00316 µM, first compound 0.316 µM
  viability, T/C: 63.4%
Second compound 0.00316 µM, first compound 1 µM
  viability, T/C: 53.4%
Second compound 0.00316 µM, first compound 3.16 µM
  viability, T/C: 31%
Second compound 0.00316 µM, first compound 10 µM
  viability, T/C: 12.8%
Second compound 0.01 µM, first compound 0.0316 µM
  viability, T/C: 71.7%
Second compound 0.01 µM, first compound 0.1 µM
  viability, T/C: 67.5%
Second compound 0.01 µM, first compound 0.316 µM
  viability, T/C: 60.2%
Second compound 0.01 µM, first compound 1 µM
  viability, T/C: 46.3%
Second compound 0.01 µM, first compound 3.16 µM
  viability, T/C: 27.1%
Second compound 0.01 µM, first compound 10 µM
  viability, T/C: 15.3%
Second compound 0.0316 µM, first compound 0.0316 µM
  viability, T/C: 74.9%
Second compound 0.0316 µM, first compound 0.1 µM
  viability, T/C: 60.5%
Second compound 0.0316 µM, first compound 0.316 µM
  viability, T/C: 53.7%
Second compound 0.0316 µM, first compound 1 µM
  viability, T/C: 39.2%
Second compound 0.0316 µM, first compound 3.16 µM
  viability, T/C: 39%
Second compound 0.0316 µM, first compound 10 µM
  viability, T/C: 12%
Second compound 0.1 µM, first compound 0.0316 µM
  viability, T/C: 70%
Second compound 0.1 µM, first compound 0.1 µM
  viability, T/C: 57.8%
Second compound 0.1 µM, first compound 0.316 µM
  viability, T/C: 60.7%
Second compound 0.1 µM, first compound 1 µM
  viability, T/C: 34.6%
Second compound 0.1 µM, first compound 3.16 µM
  viability, T/C: 25.4%
Second compound 0.1 µM, first compound 10 µM
  viability, T/C: 13.6%
Second compound 0.316 µM, first compound 0.0316 µM
  viability, T/C: 61.7%
Second compound 0.316 µM, first compound 0.1 µM
  viability, T/C: 81.3%
Second compound 0.316 µM, first compound 0.316 µM
  viability, T/C: 55.5%
Second compound 0.316 µM, first compound 1 µM
  viability, T/C: 39.4%
Second compound 0.316 µM, first compound 3.16 µM
  viability, T/C: 23.5%
Second compound 0.316 µM, first compound 10 µM
  viability, T/C: 12.6%
Second compound 1 µM, first compound 0.0316 µM
  viability, T/C: 69.8%
Second compound 1 µM, first compound 0.1 µM
  viability, T/C: 57.1%
Second compound 1 µM, first compound 0.316 µM
  viability, T/C: 50.2%
Second compound 1 µM, first compound 1 µM
  viability, T/C: 39.4%
Second compound 1 µM, first compound 3.16 µM
  viability, T/C: 23.9%
Second compound 1 µM, first compound 10 µM
  viability, T/C: 11.4%

## CC(C)NCC(C(=O)N1CCN(c2ncnc3c2C(C)CC3O)CC1)c1ccc(Cl)cc1 (stereo unspecified) + CCn1c(-c2cc(N3CCN(C)CC3)cnc2C(C)OC)c2c3cc(ccc31)-c1csc(n1)CC(NC(=O)C1CC1C)C(=O)N1CCCC(N1)C(=O)OCC(C)(C)C2
Second compound 0.000949 µM
  IC50: 3880 nM
Second compound 0.003 µM
  IC50: 2300 nM
Second compound 0.00949 µM
  IC50: 587 nM
Second compound 0.03 µM
  IC50: < 31.6 nM
Second compound 0.0949 µM
  IC50: < 31.6 nM
Second compound 0.3 µM
  IC50: < 31.6 nM
[1]
  viability, T/C: 121%
[2]
  viability, T/C: 119%
[3]
  viability, T/C: 80.8%
[4]
  viability, T/C: 88.9%
[5]
  viability, T/C: 60%
[6]
  viability, T/C: 19.1%
[7]
  viability, T/C: 100%
[8]
  viability, T/C: 95%
[9]
  viability, T/C: 71.2%
[10]
  viability, T/C: 71.3%
[11]
  viability, T/C: 44.1%
[12]
  viability, T/C: 17%
[13]
  viability, T/C: 74.7%
[14]
  viability, T/C: 56.9%
[15]
  viability, T/C: 58.5%
[16]
  viability, T/C: 48.6%
[17]
  viability, T/C: 21.5%
[18]
  viability, T/C: 12.3%
[19]
  viability, T/C: 46.9%
[20]
  viability, T/C: 46.3%
[21]
  viability, T/C: 38.3%
[22]
  viability, T/C: 31.7%
[23]
  viability, T/C: 14.8%
[24]
  viability, T/C: 15.3%
[25]
  viability, T/C: 34.7%
[26]
  viability, T/C: 40.6%
[27]
  viability, T/C: 30.4%
[28]
  viability, T/C: 30.9%
[29]
  viability, T/C: 15%
[30]
  viability, T/C: 13.9%
[31]
  viability, T/C: 34.2%
[32]
  viability, T/C: 38.6%
[33]
  viability, T/C: 29.6%
[34]
  viability, T/C: 22.4%
[35]
  viability, T/C: 19.2%
[36]
  viability, T/C: 14.5%

## Cc1nc(N2CCC3(CC2)COC(C)C3N)c(CO)nc1Sc1ccnc(N)c1Cl (stereo unspecified) + CCn1c(-c2cccnc2C(C)OC)c2c3cc(ccc31)N1CCOC(CC(NC(=O)C(C(C)C)N(C)C(=O)C3(F)CCN(C(=O)C#CC(C)(C)N(C)C)CC3)C(=O)N3CCCC(N3)C(=O)OCC(C)(C)C2)C1
Second compound 0.000949 µM
  IC50: 2920 nM
Second compound 0.003 µM
  IC50: 541 nM
Second compound 0.00949 µM
  IC50: 738 nM
Second compound 0.03 µM
  IC50: 465 nM
Second compound 0.0949 µM
  IC50: 302 nM
Second compound 0.3 µM
  IC50: 213 nM
[1]
  viability, T/C: 120%
[2]
  viability, T/C: 101%
[3]
  viability, T/C: 60.3%
[4]
  viability, T/C: 65.7%
[5]
  viability, T/C: 63.3%
[6]
  viability, T/C: 31.3%
[7]
  viability, T/C: 107%
[8]
  viability, T/C: 80.1%
[9]
  viability, T/C: 42.9%
[10]
  viability, T/C: 55.6%
[11]
  viability, T/C: 35.3%
[12]
  viability, T/C: 18.3%
[13]
  viability, T/C: 80.7%
[14]
  viability, T/C: 59.4%
[15]
  viability, T/C: 83.1%
[16]
  viability, T/C: 41.3%
[17]
  viability, T/C: 23.9%
[18]
  viability, T/C: 22.4%
[19]
  viability, T/C: 77.8%
[20]
  viability, T/C: 70.5%
[21]
  viability, T/C: 58.5%
[22]
  viability, T/C: 34.9%
[23]
  viability, T/C: 20.1%
[24]
  viability, T/C: 20.9%
[25]
  viability, T/C: 81.4%
[26]
  viability, T/C: 64.2%
[27]
  viability, T/C: 51.5%
[28]
  viability, T/C: 35.5%
[29]
  viability, T/C: 19.8%
[30]
  viability, T/C: 23%
[31]
  viability, T/C: 84.8%
[32]
  viability, T/C: 66.1%
[33]
  viability, T/C: 41.6%
[34]
  viability, T/C: 26.5%
[35]
  viability, T/C: 20.3%
[36]
  viability, T/C: 19.4%

— PubChem BioAssay AID2060892 (Molecular Pharmacology Branch, DTP, NCI, 2025)
